According to patent US5811425A, “Heterocyclic compounds as COX-2 inhibitors” (Abbott Laboratories, priority 1997, dated 1998):
Counter-ions that a name gives are not always drawn.

Tests used:
[1] = molecular target: T1, recombinant human PGHS-1 (COX-1) (Homo sapiens, UniProt P23219); test: Recombinant human PGHS-1 enzyme assay (PGE2 production by EIA); format: biochemical; details: 100 uM compound; 60 min preincubation; 10 uM arachidonic acid; read-out: COX-1 (% inhib. @ 100 uM)
T1 construct: made in house; host or cells: baculovirus/Sf9 insect cells (microsomes)
Method: Recombinant Human PGHS-l and -2 Enzyme Assays:
The reaction was allowed to run for 2.5 minutes at room temperature prior to quenching with HCl and neutralization with NaOH. PGE2 production in the presence and absence of the drug was determined by Enzyme ImmunoAssay ("EIA") analysis as described below.
(§1) EIA Determination of Prostaglandins
(§2) EIA reagents for prostaglandin determination were purchased from Perspective Diagnostics, Cambridge, Mass. PGE2 levels in lavage fluids were determined after the samples were dried under nitrogen and reconstituted with assay buffer. PGE2 levels in enzyme assays or cell culture media were measured against standards prepared in the same milieu. The immunoassays were conducted as recommended by the manufacturer. The EIA was conducted in 96 well microtiter plates (Nunc Roskilde, Denmark) and optical density measured using a microplate reader (Vmax, Molecular Devices Corp., Menlo Park, Calif.).

[2] = molecular target: T2, recombinant human PGHS-2 (COX-2) (Homo sapiens, UniProt P35354); test: Recombinant human PGHS-2 enzyme assay (PGE2 production by EIA); format: biochemical; details: 60 min preincubation, 10 uM arachidonic acid; for inhibition at 0.1 µM: 100 nM compound
T2 construct: made in house; host or cells: baculovirus/Sf9 insect cells (microsomes)
T2 sequence (P35354 18-604): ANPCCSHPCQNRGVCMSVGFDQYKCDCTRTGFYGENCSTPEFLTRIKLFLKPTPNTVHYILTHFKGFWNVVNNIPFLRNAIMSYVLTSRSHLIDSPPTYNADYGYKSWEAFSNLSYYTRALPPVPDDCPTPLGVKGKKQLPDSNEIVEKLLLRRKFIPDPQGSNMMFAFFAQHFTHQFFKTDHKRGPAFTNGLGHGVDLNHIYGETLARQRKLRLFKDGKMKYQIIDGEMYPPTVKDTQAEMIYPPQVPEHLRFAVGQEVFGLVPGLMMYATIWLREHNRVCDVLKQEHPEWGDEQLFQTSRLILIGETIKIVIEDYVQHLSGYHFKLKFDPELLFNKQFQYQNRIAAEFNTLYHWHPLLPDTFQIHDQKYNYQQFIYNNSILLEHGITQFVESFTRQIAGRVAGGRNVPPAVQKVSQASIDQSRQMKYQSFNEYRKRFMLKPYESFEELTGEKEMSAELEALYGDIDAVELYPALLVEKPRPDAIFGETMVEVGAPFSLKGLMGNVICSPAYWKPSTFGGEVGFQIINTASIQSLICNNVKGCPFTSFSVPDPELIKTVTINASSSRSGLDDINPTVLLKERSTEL
Method: Recombinant Human PGHS-l and -2 Enzyme Assays: A compound of the invention was dissolved in DMSO (3.3%v/v) and preincubated with microsomes from recombinant human PGHS-1 and-2 expressed in the baculovirus/Sf9 cell system (Gierse, J. […] The reaction was allowed to run for 2.5 minutes at room temperature prior to quenching with HCl and neutralization with NaOH. PGE2 production in the presence and absence of the drug was determined by Enzyme ImmunoAssay ("EIA") analysis as described below. EIA Determination of Prostaglandins EIA reagents for prostaglandin determination were purchased from Perspective Diagnostics, Cambridge, Mass. PGE2 levels in lavage fluids were determined after the samples were dried under nitrogen and reconstituted with assay buffer. PGE2 levels in enzyme assays or cell culture media were measured against standards prepared in the same milieu. The immunoassays were conducted as recommended by the manufacturer. The EIA was conducted in 96 well microtiter plates (Nunc Roskilde, Denmark) and optical density measured using a microplate reader (Vmax, Molecular Devices Corp., Menlo Park, Calif.).

[3] = tested on: carragennan induced pleurisy; test: Carragennan Induced Pleurisy Test (CIP); format: in vivo, Sprague-Dawley rats; details: Rattus norvegicus; rats, oral 10 mg/kg, 30 min before carrageenan; prostaglandin in pleural lavage at 4 h
Method: as §1, §2
Carragennan Induced Pleurisy Test (CIP)
Four hours after carrageenan injection, the animals were euthanized and their pleural cavities lavaged with ice cold saline. […] Prostaglandin levels in the methanol lavage fluid were then determined by EIA.

T1 sequence (P23219 24-599): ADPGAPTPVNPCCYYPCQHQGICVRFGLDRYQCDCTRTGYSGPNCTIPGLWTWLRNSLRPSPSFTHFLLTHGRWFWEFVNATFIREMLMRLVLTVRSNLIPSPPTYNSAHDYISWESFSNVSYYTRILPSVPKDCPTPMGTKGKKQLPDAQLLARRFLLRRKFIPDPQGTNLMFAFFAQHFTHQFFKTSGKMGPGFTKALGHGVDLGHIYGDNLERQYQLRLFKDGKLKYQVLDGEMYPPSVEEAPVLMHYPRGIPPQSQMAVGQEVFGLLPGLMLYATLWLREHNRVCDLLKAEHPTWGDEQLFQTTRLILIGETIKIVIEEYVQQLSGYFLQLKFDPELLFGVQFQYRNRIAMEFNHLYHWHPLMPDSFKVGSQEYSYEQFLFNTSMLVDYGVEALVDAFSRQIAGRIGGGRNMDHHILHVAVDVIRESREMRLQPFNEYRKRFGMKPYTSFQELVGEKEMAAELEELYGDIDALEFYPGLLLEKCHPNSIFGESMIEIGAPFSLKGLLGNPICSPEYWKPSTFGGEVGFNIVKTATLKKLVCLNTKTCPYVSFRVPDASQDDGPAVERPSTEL

Row | Structure (SMILES) | inhibition at 100 µM [1] [%] | inhibition at 0.1 µM [2] [%] | inhibition in vivo at 10 mg/kg [3] [%] | IC50 [2] [nM]
1 | COc1ccc2c(c1)c(Cc1csc(-c3ccncc3)n1)c(C)n2C(=O)c1ccc(Cl)cc1 [Example 13, 1-(4-Chlorobenzoyl)-5-methoxy-2-methyl-3-[2-(4-pyridyl)thiazol-4-ylmethyl]indole] | 49 | 77 | 14 | –
2 | COc1ccc2c(c1)c(Cc1nc(-c3cccc(Br)c3)cs1)c(C)n2C(=O)c1ccc(Cl)cc1 [Example 4, 3-[4-(3-bromophenyl)thiazol-2-ylmethyl]-1-(4-Chlorobenzoyl)-5-methoxy-2-methylindole] | 35 | – | 24 | 8
3 | COc1ccc2c(c1)c(Cc1csc(-c3cccnc3)n1)c(C)n2C(=O)c1ccc(Cl)cc1 [Example 12, 1-(4-Chlorobenzoyl)-5-methoxy-2-methyl-3-[2-(3-pyridyl)thiazol-4-ylmethyl]indole] | 40 | – | – | 20
4 | COc1ccc2c(c1)c(Cc1nc(-c3csc4ccccc34)cs1)c(C)n2C(=O)c1ccc(Cl)cc1 [Example 7, 3-[4-(3-benzothienyl)thiazol-2-ylmethyl]-1-(4-Chlorobenzoyl)-5-methoxy-2-methylindole] | 23 | – | 20 | 1
5 | COc1ccc2c(c1)c(Cc1nc(-c3ccc(O)c([N+](=O)[O-])c3)cs1)c(C)n2C(=O)c1ccc(Cl)cc1 [Example 11, 1-(4-Chlorobenzoyl)-3-[4-(4-hydroxy-3-nitrophenyl)thiazol-2-ylmethyl]-5-methoxy-2-methylindole] | 23 | 48 | 30 | –
6 | COc1ccc2c(c1)c(Cc1nc(-c3ccc([N+](=O)[O-])cc3)cs1)c(C)n2C(=O)c1ccc(Cl)cc1 [Example 6, 1-(4-Chlorobenzoyl)-5-methoxy-2-methyl-3-[4-(4-nitrophenyl)thiazol-2-ylmethyl]indole] | 26 | – | – | 12
7 | COc1ccc2c(c1)c(Cc1nc(-c3ccc(Br)cc3)cs1)c(C)n2Cc1ccc(Br)cc1 [Example 15, 1-(4-bromobenzyl)-3-[4-(4-bromophenyl)thiazol-2-ylmethyl]-5-methoxy-2-methylindole] | 15 | – | – | 30
8 | COc1ccc2c(c1)c(Cc1nc(-c3ccc(Br)cc3)cs1)c(C)n2C(=O)c1ccc(Cl)cc1 [Example 1, 3-[4-(4-bromophenyl)thiazol-2-ylmethyl]-1-(4-Chlorobenzoyl)-5-methoxy-2-methylindole] | 32 | – | 43 | 0.3
9 | COc1ccc2c(c1)c(Cc1nc(-c3ccc(S(C)(=O)=O)cc3)cs1)c(C)n2C(=O)c1ccc(Cl)cc1 [Example 9, 1-(4-Chlorobenzoyl)-3-[4-(4-methanesulfonylphenyl)thiazol-2-ylmethyl]-5-methoxy-2-methylindole hydrobromide salt] | 40 | – | – | 60
10 | COc1ccc2c(c1)c(Cc1nc(-c3ccc([N+](=O)[O-])cc3)cs1)c(C)n2Cc1ccc(Br)cc1 [Example 16, 1-(4-bromobenzyl)-5-methoxy-2-methyl-3-[4-(4-nitrophenyl)thiazol-2-ylmethyl]indole] | 21 | – | 31 | 7
11 | COc1ccc2c(c1)c(Cc1nc(-c3ccc(Cl)cc3)cs1)c(C)n2C(=O)c1ccc(Cl)cc1 [Example 5, 1-(4-Chlorobenzoyl)-3-[4-(4-Chlorophenyl)thiazol-2-ylmethyl]-5-methoxy-2-methylindole] | 16 | – | – | 14
12 | COc1ccc2c(c1)c(Cc1nc(-c3ccc(F)cc3)cs1)c(C)n2C(=O)c1ccc(Cl)cc1 [Example 8, 1-(4-Chlorobenzoyl)-3-[4-(4-fluorophenyl)thiazol-2-ylmethyl]-5-methoxy-2-methylindole] | 36 | – | – | 12
13 | COc1ccc2c(c1)c(Cc1nc(-c3ccc4ccccc4c3)cs1)c(C)n2C(=O)c1ccc(Cl)cc1 [Example 3, 1-(4-Chlorobenzoyl)-5-methoxy-2-methyl-3-[4-(2-naphthyl)thiazol-2-ylmethyl]indole] | 21 | – | – | 7
14 | COc1ccc2c(c1)c(Cc1nc(-c3ccc(F)cc3F)cs1)c(C)n2C(=O)c1ccc(Cl)cc1 [Example 2, 1-(4-Chlorobenzoyl)-3-[4-(2.4-difluorophenyl)thiazol-2-ylmethyl]-5-methoxy-2-methylindole] | 20 | 82 | 16 | –
15 | COc1ccc2c(c1)c(Cc1nc(-c3cccc([N+](=O)[O-])c3)cs1)c(C)n2C(=O)c1ccc(Cl)cc1 [Example 10, 1-(4-Chlorobenzoyl)-5-methoxy-2-methyl-3-[4-(3-nitrophenyl)thiazol-2-ylmethyl]indole] | 31 | 85 | – | –
16 | COc1ccc2c(c1)c(Cc1nc(-c3ccc(Cl)cc3)cs1)c(C)n2Cc1ccc(Br)cc1 [Example 14, 1-(4-bromobenzyl)-3-[4-(4-Chlorophenyl)thiazol-2-ylmethyl]-5-methoxy-2-methylindole] | 15 | – | 36 | 7
